B1: Thermolysin: enzyme used for decellularization; attacks the bulbous phemphigoid antigen in the hemidesmosome (protein, UniProt P00800 233-548, looked up)
Thermolysin: ITGTSTVGVGRGVLGDQKNINTTYSTYYYLQDNTRGNGIFTYDAKYRTTLPGSLWADADNQFFASYDAPAVDAHYYAGVTYDYYKNVHNRLSYDGNNAAIRSSVHYSQGYNNAFWNGSQMVYGDGDGQTFIPLSGGIDVVAHELTHAVTDYTAGLIYQNESGAINEAISDIFGTLVEFYANKNPDWEIGEDVYTPGISGDSLRSMSDPAKYGDPDHYSKRYTGTQDNGGVHINSGIINKAAYLISQGGTHYGVSVVGIGRDKLGKIFYRALTQYLTPTSNFSQLRAAAVQSATDLYGSTSQEVASVKQAFDAVGVK

Legend:
human cadaver skin = assay: Removal of epidermis/keratinocytes from human cadaver skin by enzyme or salt incubation
Description: Alternatively, enzymes may be used to accomplish decellularization, including but not limited to dispase II, trypsin, and thermolysin. These enzymes react with different components of collagen and intercellular connections in achieving their effects. Dispase II attacks Type IV collagen, which is a component of the lamina densa and anchoring fibrils of the basement membrane. Thermolysin attacks the bulbous phemphigoid antigen in the hemidesmosome of the basal layer of keratinocytes. Trypsin attacks the desmosome complex between cells. Due to the proteolytic nature of these enzymes, care must be taken that cellular removal occurs without significant damage to the extracellular matrix, including the basement membrane complex. This is a function of concentration, time and temperature. If used for too long a time or at too high a concentration, dispase II for example can completely remove the basement membrane complex from the dermis.

porcine skin = assay: Separation of epidermis and dermis of porcine skin by salt incubation; settings: 1 molar, 48 hours

Molecule | separation of the epidermis and dermis (human cadaver skin; 1 molar, 16 hours, human skin) | separation of the epidermis and dermis (porcine skin) | removal of keratinocytes (human cadaver skin; 200 ug/ml, 30 minutes, 4° C., human cadaver skin)
[Cl-].[Na+] [sodium chloride] | clean separation of the epidermis and dermis without damage to the basement membrane complex | clean separation of the epidermis and dermis without damage to the basement membrane complex | 
B1 |  |  | essentially remove all keratinocytes

Reference: patent publication US20030035843A1, “Method for processing and preserving collagen-based tissues for transplantation” (LifeCell Corporation, a Delaware corporation, priority 1990, published 2003)
